Measured values as given in patent publication US20130143929A1, “FUNGICIDAL IMIDAZOLES” (EI DU PONT DE NEMOURS AND COMPANY, priority 2010, published 2013).
Marks after values point to notes of the source that are not given here.

How the values were obtained:
Type in all cases: in vivo
[1] = system: Botrytis cinerea (the causal agent of tomato Botrytis); assay: Test C: tomato Botrytis, preventive spray on tomato seedlings, visual disease rating; conditions: for Test C rating (% disease control, tomato Botrytis): 100 = 100% disease control; for Test C rating (100 = 100% disease control, 0 = no disease control relative to the controls): tomato Botrytis, preventive spray on tomato seedlings
Procedure, shortened: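 Test suspension (acetone/water with 250 ppm Trem 014; 200 ppm equivalent to 800 g/ha) sprayed to run-off on tomato seedlings; B. cinerea spores inoculated next day. After 48 h saturated humidity at 20° C then 3 days at 24° C, disease rated visually as % control relative to untreated controls (0–100).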

[2] = system: Septoria tritici (the causal agent of wheat leaf blotch); assay: Test B: wheat leaf blotch, preventive spray on wheat seedlings, visual disease rating; conditions: for Test B rating (% disease control, wheat leaf blotch): 100 = 100% disease control; for Test B rating (100 = 100% disease control, 0 = no disease control relative to the controls): wheat leaf blotch, preventive spray on wheat seedlings
Procedure, shortened: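 Wheat seedlings sprayed to run-off with compound suspension (acetone/water with 250 ppm Trem 014; 200 ppm ≈ 800 g/ha, some at 40 ppm), inoculated next day with Septoria tritici spores. 48 h saturated humidity at 24 °C, then 19 days at 20 °C; visual rating, 100 = full control.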

[3] = system: Puccinia recondite f. sp. tritici (the causal agent of wheat leaf rust); assay: Test A: wheat leaf rust, preventive spray on wheat seedlings, visual disease rating; conditions: for Test A rating (% disease control, wheat leaf rust): 100 = 100% disease control; for Test A rating (100 = 100% disease control, 0 = no disease control relative to the controls): wheat leaf rust, preventive spray on wheat seedlings
Procedure, shortened: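 Wheat seedlings were sprayed to run-off with compound suspended in acetone/water containing 250 ppm Trem 014 (200 ppm ≈ 800 g/ha; some at 40 ppm). Puccinia recondite spores were inoculated the next day. Plants were held 24 h saturated at 20° C, then 7 days at 20° C, and disease control was rated visually on a 0–100 scale against controls.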

[4] = system: Blumeria graminis f. sp. tritici (also known as Erysiphe graminis f. sp. tritici, the causal agent of wheat powdery mildew); assay: Test D: wheat powdery mildew, preventive spray on wheat seedlings, visual disease rating; conditions: for Test D rating (% disease control, wheat powdery mildew): 100 = 100% disease control; for Test D rating (100 = 100% disease control, 0 = no disease control relative to the controls): wheat powdery mildew, preventive spray on wheat seedlings
Procedure, shortened: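 Compound suspended in acetone/water (50/50) with 250 ppm Trem 014 and sprayed to run-off on wheat seedlings (200 ppm ≈ 800 g/ha), then inoculated next day with spore dust. Disease rated visually after 8 days at 20 °C as % control relative to untreated plants (0-100).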

[5] = no asterisk: standard test suspension concentration, 0 = no control relative to controls
[6] = asterisk: 40 ppm test suspension
[7] = no asterisk (standard test suspension concentration, not 40 ppm)
[8] = asterisk: 40 ppm test suspension, 0 = no control

| SMILES | Test C rating (100 = 100% disease control, 0 = no disease control relative to the controls) [1, 6] | Test B rating (100 = 100% disease control, 0 = no disease control relative to the controls) [2, 6] | Test A rating (100 = 100% disease control, 0 = no disease control relative to the controls) [3, 6] | Test D rating (100 = 100% disease control, 0 = no disease control relative to the controls) [4, 6] | further results |
| --- | --- | --- | --- | --- | --- |
| Cc1nc(Br)c(C(O)c2ccc(F)cc2F)n1-c1ccc(F)cc1F (stereo not shown) [compound 382] |  |  |  |  | Test C rating (% disease control, tomato Botrytis) [1, 5]: 99%; Test B rating (% disease control, wheat leaf blotch) [2, 5]: 100%; Test A rating (% disease control, wheat leaf rust) [3, 5]: 100%; Test D rating (% disease control, wheat powdery mildew) [4, 5]: 0% |
| Cc1nc(Cl)c(C(O)c2ccc(F)cc2F)n1-c1c(F)cc(Cl)cc1F (stereo not shown) [compound 127] | 73* % | 100* % | 100* % | 0* % |  |
| COc1ccc(C(O)c2c(Cl)nc(C)n2-c2ccc(F)cc2Br)c(F)c1 (stereo not shown) [compound 314] | 99* % | 100* % | 100* % | 47* % |  |
| Cc1cc(Cl)ccc1C(O)c1c(Cl)nc(C)n1-c1c(F)cccc1F (stereo not shown) [compound 159] | 99* % | 100* % | 99* % | 97* % |  |
| Cc1nc(Cl)c(C(O)c2ccc(F)cc2Br)n1-c1c(F)cccc1Br (stereo not shown) [compound 68] |  |  |  |  | Test C rating (100 = 100% disease control, 0 = no disease control relative to the controls) [1, 7]: 100%; Test B rating (100 = 100% disease control, 0 = no disease control relative to the controls) [2, 7]: 100%; Test A rating (100 = 100% disease control, 0 = no disease control relative to the controls) [3, 7]: 100%; Test D rating (100 = 100% disease control, 0 = no disease control relative to the controls) [4, 7]: 96% |
| Cc1nc(Br)c(C(O)c2ccc(F)cc2F)n1-c1c(F)cc(F)cc1Br (stereo not shown) [compound 394] |  |  |  |  | Test C rating (% disease control, tomato Botrytis) [1, 5]: 100%; Test B rating (% disease control, wheat leaf blotch) [2, 5]: 100%; Test A rating (% disease control, wheat leaf rust) [3, 5]: 100%; Test D rating (% disease control, wheat powdery mildew) [4, 5]: 72% |
| Cc1nc(Br)c(C(O)c2ccc(F)cc2Cl)n1-c1c(F)cccc1F (stereo not shown) [compound 99] | 99* % | 100* % | 100* % | 98* % |  |
| OC(c1ccc(F)cc1Cl)c1cnc(C2CC2)n1-c1c(F)cccc1Br (stereo not shown) [compound 75] |  |  |  |  | Test C rating (100 = 100% disease control, 0 = no disease control relative to the controls) [1, 7]: 0%; Test B rating (100 = 100% disease control, 0 = no disease control relative to the controls) [2, 7]: 1%; Test A rating (100 = 100% disease control, 0 = no disease control relative to the controls) [3, 7]: 94%; Test D rating (100 = 100% disease control, 0 = no disease control relative to the controls) [4, 7]: 0% |
| COc1ccc(C(O)c2c(Br)nc(C)n2-c2c(F)cccc2Cl)c(Cl)c1 (racemic) [compound 276] | 100* % | 100* % | 100* % | 100* % |  |
| OC(c1ccc(F)cc1F)c1c(Br)nc(Cl)n1-c1c(F)cc(F)cc1Cl (stereo not shown) [compound 108] | 67* % | 100* % | 100* % | 99* % |  |
| Cc1cccc(F)c1-n1c(C)nc(Br)c1C(O)c1ccc(F)cc1F (stereo not shown) [compound 341] | 86* % | 100* % | 94* % | 43* % |  |
| Cc1cc(F)ccc1C(O)c1c(Cl)nc(C)n1-c1c(F)cccc1F (stereo not shown) [compound 91] |  |  |  |  | Test C rating (100 = 100% disease control, 0 = no disease control relative to the controls) [1, 7]: 98%; Test B rating (100 = 100% disease control, 0 = no disease control relative to the controls) [2, 7]: 100%; Test A rating (100 = 100% disease control, 0 = no disease control relative to the controls) [3, 7]: 100%; Test D rating (100 = 100% disease control, 0 = no disease control relative to the controls) [4, 7]: 94% |
| Cc1ncc(C(O)c2ccc(F)cc2Cl)n1-c1ccc(F)cc1Br (stereo not shown) [compound 189] |  |  |  |  | Test C rating (100 = 100% disease control, 0 = no disease control relative to the controls) [1, 7]: 99%; Test B rating (100 = 100% disease control, 0 = no disease control relative to the controls) [2, 7]: 100%; Test A rating (100 = 100% disease control, 0 = no disease control relative to the controls) [3, 7]: 100%; Test D rating (100 = 100% disease control, 0 = no disease control relative to the controls) [4, 7]: 27% |
| Cc1nc(C)n(-c2c(F)cc(F)cc2Cl)c1C(O)c1ccc(F)cc1F (racemic) [compound 245] | 91* % | 100* % | 100* % | 84* % |  |
| COc1ccc(C(O)c2c(Cl)nc(C)n2-c2c(F)cc(F)cc2Cl)c(F)c1 (stereo not shown) [compound 345] | 99* % | 100* % | 100* % | 35* % |  |
| OC(c1ccc(F)cc1F)c1c(Br)nc(Br)n1-c1ccc(F)cc1Cl (stereo not shown) [compound 65] | 100* % | 100* % | 100* % | 64* % |  |
| COc1ccc(-n2c(Cl)nc(Cl)c2C(O)c2c(F)cc(F)cc2F)c(F)c1 (stereo not shown) [compound 327] | 100* % | 100* % | 100* % | 29* % |  |
| Cc1nc(Cl)n(-c2c(F)cccc2Cl)c1C(O)c1ccc(F)cc1F (stereo not shown) [compound 332] | 99* % | 100* % | 100* % | 92* % |  |
| COc1ccc(-n2c(Cl)nc(Cl)c2C(O)c2ccc(F)cc2F)c(F)c1 (stereo not shown) [compound 328] | 100* % | 100* % | 100* % | 64* % |  |
| Cc1cc(C#N)ccc1C(O)c1c(Cl)nc(C)n1-c1c(F)cccc1F (stereo not shown) [compound 164] | 0* % | 100* % | 93* % | 0* % |  |
| COc1ccc(C(O)c2cnc(C)n2-c2ccc(F)cc2Cl)c(F)c1 (racemic) [compound 300] | 0* % | 95* % | 95* % | 0* % |  |
| COc1cc(F)c(-n2c(C)nc(Br)c2C(O)c2ccc(F)cc2F)c(F)c1 (stereo not shown) [compound 412] |  |  |  |  | Test C rating (% disease control, tomato Botrytis) [1, 8]: 0* %; Test B rating (% disease control, wheat leaf blotch) [2, 8]: 100* %; Test A rating (% disease control, wheat leaf rust) [3, 8]: 100* %; Test D rating (% disease control, wheat powdery mildew) [4, 8]: 0* % |
| Cc1ncc(C(O)c2ccc(Cl)cc2Cl)n1-c1ccc(F)cc1F (racemic) [compound 256] |  |  |  |  | Test C rating (100 = 100% disease control, 0 = no disease control relative to the controls) [1, 7]: 0%; Test B rating (100 = 100% disease control, 0 = no disease control relative to the controls) [2, 7]: 6%; Test A rating (100 = 100% disease control, 0 = no disease control relative to the controls) [3, 7]: 55%; Test D rating (100 = 100% disease control, 0 = no disease control relative to the controls) [4, 7]: 0% |
| Cc1nc(Br)c(C(O)c2c(F)cc(F)cc2F)n1-c1ccc(F)cc1F (stereo not shown) [compound 177] |  |  |  |  | Test C rating (100 = 100% disease control, 0 = no disease control relative to the controls) [1, 7]: 99%; Test B rating (100 = 100% disease control, 0 = no disease control relative to the controls) [2, 7]: 100%; Test A rating (100 = 100% disease control, 0 = no disease control relative to the controls) [3, 7]: 100%; Test D rating (100 = 100% disease control, 0 = no disease control relative to the controls) [4, 7]: 0% |
| Cc1nc(Cl)c(C(O)c2ccc(Cl)cc2)n1-c1ccc(F)cc1Cl (stereo not shown) [compound 59] |  |  |  |  | Test C rating (100 = 100% disease control, 0 = no disease control relative to the controls) [1, 7]: 99%; Test B rating (100 = 100% disease control, 0 = no disease control relative to the controls) [2, 7]: 100%; Test A rating (100 = 100% disease control, 0 = no disease control relative to the controls) [3, 7]: 100%; Test D rating (100 = 100% disease control, 0 = no disease control relative to the controls) [4, 7]: 73% |
